Key:
[1] = molecular target: T1, DNA gyrase subunit B (Staphylococcus aureus, UniProt P0A0K8); test: Supercoiling Assay; settings: pH 7.6; 25 °C
Description: Supercoiling assay was performed using the commercially available kit (DNA gyrase supercoiling assay kit: SAS4001) from Inspiralis Pvt.limited, Norwich, UK. The assay was performed in 1.5 mL eppendorf tubes at room temperature. […] KOH (pH 7.6), 10 mM magnesium acetate, 10 mM DTT, 2 mM ATP, 500 mM potassium glutamate, 0.05 mg/mL albumin (BSA). While the standard compound novobiocin was the positive control, 4% DMSO was considered as negative control. Subsequently, each reaction was stopped by the addition of 30 µL of Stop dye [40% sucrose, 100 mM Tris-HCl (pH 7.5), 1 mM EDTA and 0.5 mg/mL bromophenol blue] (8), briefly centrifuged for 45 sec and was run in 1% agarose gel in 1X TAE buffer (40mM Tris acetate, 2mM EDTA).

[2] = molecular target: T1, DNA gyrase subunit B; test: GyraseB Assay; settings: pH 7.5
Description: Initially, equimolar quantities of about 0.5µM each of E. coli gyraseA and S. aureus gyraseB were incubated for a period of 45 min with salmon sperm DNA (Sigma) in 50mM Tris (pH 7.5), 75mM ammonium acetate buffer for the reconstitution of the hybrid topoisomerases at 4 OC. Later the assay was performed in a 96-well microtiter plate as mentioned earlier (7). […] The reaction was allowed to proceed for 60 min and was quenched by addition of 20uL of malachite green reagent (POMG-25H, Bioassay systems, USA) subsequently absorbance was read at 650nm after 20 mi

T1 sequence (P0A0K8 whole entry): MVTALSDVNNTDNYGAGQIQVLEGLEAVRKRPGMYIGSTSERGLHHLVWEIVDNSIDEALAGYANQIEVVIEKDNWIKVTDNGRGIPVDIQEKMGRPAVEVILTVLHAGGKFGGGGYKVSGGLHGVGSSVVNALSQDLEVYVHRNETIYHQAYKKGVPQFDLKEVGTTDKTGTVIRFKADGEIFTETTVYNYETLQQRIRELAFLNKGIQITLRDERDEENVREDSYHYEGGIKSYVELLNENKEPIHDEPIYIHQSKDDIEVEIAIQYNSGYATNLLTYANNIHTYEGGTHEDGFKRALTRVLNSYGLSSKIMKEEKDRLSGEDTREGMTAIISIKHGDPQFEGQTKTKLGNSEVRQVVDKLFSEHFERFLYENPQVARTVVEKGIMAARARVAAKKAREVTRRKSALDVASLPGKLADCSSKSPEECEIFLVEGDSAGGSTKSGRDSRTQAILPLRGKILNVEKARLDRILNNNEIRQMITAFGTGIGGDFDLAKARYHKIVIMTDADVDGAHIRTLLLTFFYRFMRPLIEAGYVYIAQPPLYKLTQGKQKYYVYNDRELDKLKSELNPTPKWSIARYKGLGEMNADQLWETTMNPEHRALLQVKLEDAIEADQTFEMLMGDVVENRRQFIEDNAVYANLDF

Structure (SMILES) | IC50 [1] | IC50 [2]
O=C(O)CCC(=O)Nc1ccc(NC(=O)C2CCCO2)cc1 (stereo not drawn) [4-oxo-4-(4-(tetrahydrofuran-2-carboxamido)phenylamino)butanoate (20)] | 6.12 µM | 11.7 µM
Cc1ccc(C(=O)Nc2ccc(NC(=O)CCC(=O)NN)cc2)o1 [N-(4-(4-Hydrazinyl-4-oxobutanamido)phenyl)-5-methylfuran-2-carboxamide (22)] | 2.79 µM | 5.35 µM
Cc1ccc(C(=O)Nc2ccc(NC(=O)CCC(=O)O)cc2)o1 [4-(4-(5-methylfuran-2-carboxamido)phenylamino)-4-oxobutanoate (14)] | 6.12 µM | 10.3 µM
O=C(O)CCC(=O)Nc1ccc(NC(=O)c2ccc([N+](=O)[O-])s2)cc1 [4-(4-(5-nitrothiophene-2-carboxamido)phenylamino)-4-oxobutanoate (18)] | 26.8 µM | 29.5 µM
NNC(=O)CCC(=O)Nc1ccc(NC(=O)c2ccc[nH]2)cc1 [N-(4-(4-Hydrazinyl-4-oxobutanamido)phenyl)-1H-pyrrole-2-carboxamide (27)] | 43.1 µM | 54.9 µM
NNC(=O)CCC(=O)Nc1ccc(NC(=O)c2cccs2)cc1 [N-(4-(4-Hydrazinyl-4-oxobutanamido)phenyl)thiophene-2-carboxamide (24)] | 28.1 µM | 32.6 µM
O=C(O)CCC(=O)Nc1ccc(NC(=O)c2ccc([N+](=O)[O-])o2)cc1 [4-(4-(5-nitrofuran-2-carboxamido)phenylamino)-4-oxobutanoate (15)] | 25.8 µM | 28.9 µM
Cc1ccc(C(=O)Nc2ccc(NC(=O)CCC(=O)NN)cc2)s1 [N-(4-(4-Hydrazinyl-4-oxobutanamido)phenyl)-5-methylthiophene-2-carboxamide (25)] | 6.12 µM | 9.71 µM
O=C(O)CCC(=O)Nc1ccc(NC(=O)c2ccc([N+](=O)[O-])s2)cc1 [4-((4-(5-nitrothiophene-2-carboxamido)phenyl)amino)-4-oxobutanoic acid (10)] | 6.12 µM | 12.5 µM
NNC(=O)CCC(=O)Nc1ccc(NC(=O)c2ccc([N+](=O)[O-])s2)cc1 [N-(4-(4-Hydrazinyl-4-oxobutanamido)phenyl)-5-nitrothiophene-2-carboxamide (26)] | 19.3 µM | 26.4 µM
O=C(O)CCC(=O)Nc1ccc(NC(=O)c2ccco2)cc1 [4-((4-(furan-2-carboxamido)phenyl)amino)-4-oxobutanoic acid (5)] | 3.12 µM | –
NNC(=O)CCC(=O)Nc1ccc(NC(=O)C2CCCO2)cc1 (stereo not drawn) [N-(4-(4-Hydrazinyl-4-oxobutanamido)phenyl)tetrahydrofuran-2-carboxamide (28)] | 23.1 µM | 41.2 µM
NNC(=O)CCC(=O)Nc1ccc(NC(=O)c2ccco2)cc1 [N-(4-(4-Hydrazinyl-4-oxobutanamido)phenyl)furan-2-carboxamide (21)] | 23.9 µM | 39.4 µM
O=C(O)CCC(=O)Nc1ccc(NC(=O)c2cccs2)cc1 [4-oxo-4-((4-(thiophene-2-carboxamido)phenyl)amino)butanoate (16)] | 12.5 µM | 22 µM
Cc1ccc(C(=O)Nc2ccc(NC(=O)CCC(=O)O)cc2)s1 [4-(4-(5-methylthiophene-2-carboxamido)phenylamino)-4-oxobutanoate (17)] | 12.5 µM | 24.7 µM
O=C(O)CCC(=O)Nc1ccc(NC(=O)c2ccc[nH]2)cc1 [4-(4-(1H-pyrrole-2-carboxamido)phenylamino)-4-oxobutanoate (19)] | 13.7 µM | 42.4 µM
NNC(=O)CCC(=O)Nc1ccc(NC(=O)c2ccc([N+](=O)[O-])o2)cc1 [N-(4-(4-Hydrazinyl-4-oxobutanamido)phenyl)-5-nitrofuran-2-carboxamide (23)] | 25.1 µM | 35.5 µM
